Data set [1] addresses T1, HDAC1 (Homo sapiens, UniProt Q13547).
T1 construct: Briefly, HepG2 cells were trypsinized, counted and seeded; host or cells: HepG2
Kind of data set: In vitro HDAC1 inhibition assay (ELISA kit). The class given is biochemical. Conditions: HepG2 cells exposed 72 h. On the procedure:
(§1) See Section 4.3.2 in Supplementary Data.
(§2) 4.3.1. Cytotoxic activity evaluation […]
(§3) for 24 h under 5% CO2. After incubation, the cells were treated with different concentrations of the test schiff bases 2-6e and incubated for 24 h, then 20 µl of MTT […]
(§4) (DMSO) in volume of 100 µl was added to each well to dissolve the purple formazan that had formed. The color intensity of the formazan product, which represents the […]
(§5) USA) at 450 nm absorbance. The experimental conditions were carried out with at least three replicates, and the experiments were repeated at least three times.
(§6) 4.3.2. In vitro HDAC inhibition assay
(§7) HDAC isoforms (HDAC1, 2) were measured using ELISA assay kits {Mybiosource, Inc. [#MBS2020012 and #MBS2510971]} according to manufacturer's directions.
(§8) 96-well micro titer plates. Cells then were incubated in a humidified atmosphere at 37 °C for 24 h. The standards, the tested compounds, and the positive reference SAHA were diluted to designated concentrations. On the 96-well micro titer plates standard or sample was added to each well in 100 µL, and incubated at 37 °C for 2 h. The solution was aspirated and 100 µL of prepared. Detection Reagent A was added to […]
4.3.3. […]
(§9) The samples were immediately analyzed using Facs Calibur flow cytometer (Becton and Dickinson, Heidelberg, Germany). […]
(§10) immediately analyzed using FACS Calibur flow cytometer (Becton and Dickinson, […]

Data set [2] relates to HepG2 cells. Kind of data set: Cell cycle analysis by flow cytometry (PI). Conditions: HepG2, IC50 dose, 48 h; untreated control 7.28%. The class given is cell-based, human. From the text: Inhibition of tubulin assembly into microtubule and the antiproliferative effects are characterized by cell cycle arrest in the G2/M phase. […] The results in this study indicate that the newly prepared tetraamide derivative 6a cause cell cycle perturbation in the G2/M phase which is the main gauge of HDAC and tubulin inhibitors confirming the mode of action under study.
Cell cycle analysis in HepG2 cells was investigated using fluorescent Annexin V-FITC/ PI detection kit (BioVision EZCell^TM Cell Cycle Analysis Kit Catalog #K920) by flow cytometry assay. See Section 4.3.4 in Supplementary Data. […]
(§11) concentration that induces 50% of maximum inhibition of HDAC isoforms (IC50) […]
(§12) 4.3.3. Tubulin inhibitions Assay
(§13) Compound 6a was evaluated for its tubulin inhibitory activity according to manufacturer’s instructions using # abcam Human Beta-tubulin simplestep ELISA Kit […]
(§14) 4.3.4. Cell cycle analysis of compound 6a
Cell cycle analysis in HepG2 cells was investigated using fluorescent Annexin V - FITC/ PI detection kit (BioVision EZCellTM Cell Cycle Analysis Kit Catalog #K920) by flow cytometry assay. HepG2 cells at a density of 2 × 10^5 per well were treated with compound 6a at its IC50 concentration for 48 h. […] The samples were immediately analyzed using Facs Calibur flow cytometer (Becton and Dickinson, Heidelberg, Germany). […]
(A flow cytometer gives signals particle by particle.)

Data set [3] relates to HepG2 cells. Kind of data set: MTT cytotoxicity assay against HepG2 cell line. The class given is cell-based. Conditions: Homo sapiens, mean of three independent replicates ± SE. On the procedure: (§15) Cytotoxic activity was carried out using MTT colorimetric antiproliferative assay to investigate the effect of the prepared molecules on HepG2 as well as HL-7702 cell lines. See Section 4.3.1 in Supplementary Data.
(§16) 4.3.1. Cytotoxic activity evaluation
(§17) To measure the cytotoxic actvity of the amide derivatives 2-6e in hepatocellular carcinoma (HepG2) cell line (ATCC Cat No. HB-8065) as well as normal human liver cell line HL-7702 (ATCC Cat. No. 77402), cell viability assay was assessed using MTT assay method. Cells at density of 1 x 104 were seeded in a 96-well plate at 37 °C for 24 h under 5% CO2. After incubation, the cells were treated with different concentrations of the test schiff bases 2-6e and incubated for 24 h, then 20 µl of MTT solution at 5 mg/mL was applied and incubated for 4 h at 37 °C . Dimethyl sulphoxide (DMSO) in volume of 100 µl was added to each well to dissolve the purple formazan that had formed. The color intensity of the formazan product, which represents the growth condition of the cells, is quantified by using an ELISA plate reader (EXL 800, USA) at 450 nm absorbance. The experimental conditions were carried out with at least three replicates, and the experiments were repeated at least three times. […]
A general note: Formazan colour is commonly taken as a measure of viable cells.

Data set [4] relates to HepG2 cells. In words: Annexin V-FITC/PI apoptosis assay. The class given is cell-based, human. To be noted: HepG2, IC50 concentration, 48 h. On the procedure: G2/M blockade is often followed by cellular apoptosis. To quantify the percentage of cellular apoptosis induced by compound 6a in HepG2 cells, Annexin V fluorescein isothiocyanate versus propidium iodide (PI) dual staining analysis was performed after treatment with compound 6a at its IC50 concentration for 48 h. The results were presented graphically in Figure 5. […] Therefore, it can be concluded that compound 6a can be considered as apoptotic inducer.
Apoptosis in HepG2 cells was investigated using fluorescent Annexin V-FITC/ PI detection kit (BioVision Annexin V-FITC Apoptosis Detection Kit, Catalog #: K101) by flow cytometry assay. See Section 4.3.5 in Supplementary Data. […]
as §11, §12, §13, §14
Cell cycle analysis in HepG2 cells was investigated using fluorescent Annexin V - FITC/ PI detection kit (BioVision EZCellTM Cell Cycle Analysis Kit Catalog #K920) by flow cytometry assay. HepG2 cells at a density of 2 × 10^5 per well were treated with compound 6a at its IC50 concentration for 48 h. After treatment, cells were washed twice in PBS, fixed in 70% ethanol, rinsed again with PBS. Cells were collected by centrifugation at 2000 rpm for 5 min and stained with DNA fluorochrome PI for 15 min at 37 °C in dark. The samples were immediately analyzed using Facs Calibur flow cytometer (Becton and Dickinson, Heidelberg, Germany).
4.3.5. Apoptosis assay for compound 6a […]
Caspase 3/7 in HepG2 cells was investigated using CellEvent® Caspase 3/7 Green Detection Flow Cytometry Assay Kit. Caspase 3/7 activity in HepG2 cell line was detected in the presence of compounds 6a at its IC50 concentration (µM) using CellEvent® caspase 3/7 green detection flow cytometry assay kit according to manufacturer’s directions. […]

Data set [5] has as its system HL-7702 cells. In words: MTT cytotoxicity assay against normal liver cell line HL-7702. The class given is cell-based, human. The procedure: as §15, §16, §17
The target of data set [6] is T2, β-tubulin (Homo sapiens, UniProt P07437+P68363).
T2 construct: […]
T2 sequence (P07437 whole entry): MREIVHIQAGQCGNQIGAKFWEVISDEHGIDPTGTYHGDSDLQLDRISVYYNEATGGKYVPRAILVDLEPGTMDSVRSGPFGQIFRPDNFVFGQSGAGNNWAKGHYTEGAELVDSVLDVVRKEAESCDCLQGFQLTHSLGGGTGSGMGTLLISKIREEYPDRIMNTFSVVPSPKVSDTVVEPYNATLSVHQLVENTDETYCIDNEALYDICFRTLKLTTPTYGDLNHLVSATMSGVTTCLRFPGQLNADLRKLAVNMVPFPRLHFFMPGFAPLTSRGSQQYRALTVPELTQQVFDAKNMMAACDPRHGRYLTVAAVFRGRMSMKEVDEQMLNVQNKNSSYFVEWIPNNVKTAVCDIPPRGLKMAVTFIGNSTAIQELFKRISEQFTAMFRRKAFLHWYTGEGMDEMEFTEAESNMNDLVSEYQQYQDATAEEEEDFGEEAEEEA
T2 sequence (P68363 whole entry): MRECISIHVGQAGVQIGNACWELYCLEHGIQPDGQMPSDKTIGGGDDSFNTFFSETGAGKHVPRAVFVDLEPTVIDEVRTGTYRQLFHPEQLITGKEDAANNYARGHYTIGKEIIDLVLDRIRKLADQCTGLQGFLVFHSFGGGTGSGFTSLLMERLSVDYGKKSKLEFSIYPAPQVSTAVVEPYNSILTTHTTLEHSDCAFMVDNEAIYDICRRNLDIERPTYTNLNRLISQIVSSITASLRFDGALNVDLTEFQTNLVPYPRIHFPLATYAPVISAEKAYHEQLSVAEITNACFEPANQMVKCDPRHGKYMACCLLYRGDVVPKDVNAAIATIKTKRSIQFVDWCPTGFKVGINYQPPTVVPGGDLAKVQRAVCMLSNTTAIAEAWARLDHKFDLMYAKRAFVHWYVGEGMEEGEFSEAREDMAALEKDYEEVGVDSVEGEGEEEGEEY
In words: Tubulin polymerization inhibition assay (Human Beta-tubulin ELISA kit). The class given is biochemical. The procedure: See Section 4.3.3 in Supplementary Data.
4.3.3. Tubulin inhibitions Assay […]
manufacturer’s instructions using # abcam Human Beta-tubulin simplestep ELISA Kit […]
Cell cycle analysis in HepG2 cells was investigated using fluorescent Annexin V - FITC/ PI detection kit (BioVision EZCellTM Cell Cycle Analysis Kit Catalog #K920) […]
After treatment, cells were washed twice in PBS, fixed in 70% ethanol, rinsed again with PBS. Cells were collected by centrifugation at 2000 rpm for 5 min and stained with DNA […]
The samples were immediately analyzed using Facs Calibur flow cytometer (Becton and Dickinson, Heidelberg, Germany).
Apoptosis in HepG2 cells was investigated using fluorescent Annexin V-FITC/ PI detection kit (BioVision Annexin V-FITC Apoptosis Detection Kit, Catalog #: K101) […]
as §10
Caspase 3/7 in HepG2 cells was investigated using CellEvent® Caspase 3/7 Green Detection Flow Cytometry Assay Kit. Caspase 3/7 activity in HepG2 cell line was […]
CellEvent® caspase 3/7 green detection flow cytometry assay kit according to manufacturer’s directions. […]
harvested and washed with ice cold PBS, and cell lysates were prepared and […]
For orientation: An ELISA detects its analyte on a solid surface through an enzyme-linked reagent.

Data set [7] deals with T3, HDAC2 (Homo sapiens, UniProt Q92769).
T3 construct: Briefly, HepG2 cells were trypsinized, counted and seeded; host or cells: HepG2
T3 sequence (Q92769 whole entry): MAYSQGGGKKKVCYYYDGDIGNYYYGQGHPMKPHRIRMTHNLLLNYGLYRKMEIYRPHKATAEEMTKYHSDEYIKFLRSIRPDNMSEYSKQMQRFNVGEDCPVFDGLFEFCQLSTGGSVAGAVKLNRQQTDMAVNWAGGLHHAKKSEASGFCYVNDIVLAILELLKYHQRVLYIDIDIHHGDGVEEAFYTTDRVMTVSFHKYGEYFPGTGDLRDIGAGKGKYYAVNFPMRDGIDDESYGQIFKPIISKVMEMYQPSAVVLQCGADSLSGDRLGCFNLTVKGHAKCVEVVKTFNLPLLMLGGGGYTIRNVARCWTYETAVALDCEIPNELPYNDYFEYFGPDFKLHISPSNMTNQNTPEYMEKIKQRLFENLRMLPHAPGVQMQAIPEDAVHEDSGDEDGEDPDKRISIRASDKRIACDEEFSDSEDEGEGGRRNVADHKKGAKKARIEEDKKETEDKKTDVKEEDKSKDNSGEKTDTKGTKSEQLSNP
In words: In vitro HDAC2 inhibition assay (ELISA kit). The class given is biochemical. Conditions: HepG2 cells exposed 72 h. On the procedure: as §1, §2, §3, §4, §5, §6, §7, §8
4.3.3. […]
as §9, §10

T1 sequence (Q13547 whole entry): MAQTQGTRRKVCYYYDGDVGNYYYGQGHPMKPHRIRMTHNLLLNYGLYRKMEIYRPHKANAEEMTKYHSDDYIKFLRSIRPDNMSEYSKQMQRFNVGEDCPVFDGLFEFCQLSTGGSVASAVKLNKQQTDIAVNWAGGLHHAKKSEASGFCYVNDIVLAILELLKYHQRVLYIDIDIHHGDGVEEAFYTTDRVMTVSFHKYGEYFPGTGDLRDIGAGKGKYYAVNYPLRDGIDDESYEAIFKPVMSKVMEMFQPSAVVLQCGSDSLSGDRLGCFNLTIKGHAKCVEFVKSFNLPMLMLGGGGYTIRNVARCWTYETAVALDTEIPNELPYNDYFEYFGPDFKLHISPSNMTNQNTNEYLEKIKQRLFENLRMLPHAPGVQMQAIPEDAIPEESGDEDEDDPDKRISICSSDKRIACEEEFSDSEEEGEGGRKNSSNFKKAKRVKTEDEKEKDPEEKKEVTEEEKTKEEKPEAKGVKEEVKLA

Usually IC50 stands for the concentration at which inhibition is half-maximal. Low values mean higher potency, high ones lower potency. What is called melting point is the temperature of the solid-liquid transition. In turn, `COc1cc(C(=O)NC(=Cc2ccc(Cl)cc2)C(=O)NNC(=O)/C(=C/c2ccco2)NC(=O)c2cc(OC)c(OC)c(OC)c2)cc(OC)c1OC` [Compound 6a, N-((1Z)-3-(2-(3-(4-chlorophenyl)-2-(3,4,5-trimethoxybenzamido)acryloyl)hydrazinyl)-1-(furan-2-yl)-3-oxoprop-1-en-2-yl)-3,4,5-trimethoxybenzamide] registered a melting point of 209 to 211 °C. Also, in data set [1], inhibition was half-maximal at 47 nM (IC50). In data set [2], the “cells in G2/M phase” value was found to be 39.09%. Further, the 50% inhibitory concentration (IC50) in data set [3] was determined as 650 ± 30 nM. Further, the “late apoptotic cell percentage” value in data set [4] (untreated control 0.13%) stood at 12.08%. Further, the “early apoptotic cell percentage” value in data set [4] (untreated control 0.52%) was found to be 23.41%. The compound further displayed a total apoptosis percentage in data set [4] (untreated control 1.59%) of 37.51%. In data set [5] (HL-7702 (printed HL-7022) versus HepG2), the “selectivity ratio toward normal liver cell line” value worked out at 14.8. This compound had a half-maximal inhibitory concentration (IC50) in data set [5] (Homo sapiens, L02, MTT assay, normal liver cell line HL-7702, mean of three independent replicates ± SE) of 9.62 ± 0.23 µM. The “tubulin polymerization percentage inhibition” value in data set [6] (ELISA for β-tubulin, compared with untreated control cells) is 66.39%. In addition, the midpoint of inhibition in data set [6] (β-tubulin ELISA), the IC50, lay at 270 nM. This compound yielded an IC50 in data set [7] of 86 nM.

The values above are taken from paper PMC9227250, “Design, Synthesis and Cytotoxic Activity Evaluation of Newly Synthesized Amides-Based TMP Moiety as Potential Anticancer Agents over HepG2 Cells” (Molecules, 2022).
